Results as given in patent publication US9556114B2, “Fluorinated 2-amino-4-(benzylamino)phenylcarbamate derivatives” (SciFluor Life Sciences, Inc., priority 2012, dated 2017).
“And” between values parts separate entries of the source, which are not always exact repeats. Equal values may be shown once.

Molecular target: T1, cloned KCNQ2/3 potassium channels (encoded by the human KCNQ2/3 gene and expressed in HEK293 cells) (Homo sapiens, UniProt O43525+O43526)
T1 construct: expressed in transfected cells; host or cells: HEK293 cells
Assay: Assessment of KCNQ2/3 channel activation activity, QPatch HT automatic parallel patch clamp
Assay type: cell-based
Conditions: for Mean % KCNQ2/3 Activation: 5 min exposure, room temperature, HEK293 cells; for Individual Data Points (% Activation): single cell values; for KCNQ2/3 activation activity compared with ezogabine: single concentration (0.1 μM)
Procedure: The in vitro effects of ezogabine and Compound 1A on cloned KCNQ2/3 potassium channels (encoded by the human KCNQ2/3 gene and expressed in HEK293 cells) were evaluated at room temperature using the QPatch HT® (Sophion Bioscience A/S, Denmark), an automatic parallel patch clamp system. Each test article was evaluated at 0.01, 0.1, 1, 10 and 100 μM with each concentration tested in at least two cells (n≧2). The duration of exposure to each test article concentration was 5 minutes.
The baseline for each recording was established using a 5-10 minute vehicle application (HBPS+0.3% DMSO). A single test article concentration was applied for a period of 5 minutes after the vehicle, followed by a 3 minute application of 30 μM flupirtine. Each recording ended with a supramaximal dose of 30 μM linopirdine. The % activation was calculated using the following equation by using leak subtracted responses: […]

SMILES	Mean % KCNQ2/3 Activation (0.01 μM) [%]	Mean % KCNQ2/3 Activation (0.1 μM) [%]	Mean % KCNQ2/3 Activation (1 μM) [%]	Mean % KCNQ2/3 Activation (10 μM) [%]	Mean % KCNQ2/3 Activation (100 μM) [%]	KCNQ2/3 activation activity compared with ezogabine	other results
CCOC(=O)Nc1ccc(NCc2ccc(F)cc2)cc1N [ezogabine, ethyl N-[2-amino-4-[(4-fluorophenyl)methylamino]phenyl]carbamate, reference compound]	6.6	40.6	94.4	132.0	104.1		Individual Data Points (% Activation) (0.01 μM): 2.1% and 11.1%; Individual Data Points (% Activation) (0.1 μM): 49.1% and 32.2%; Individual Data Points (% Activation) (1 μM): 93.6% and 95.2%; Individual Data Points (% Activation) (10 μM): 123.7% and 140.4%; Individual Data Points (% Activation) (100 μM): 93.8% and 101.9% and 116.5%
CCOC(=O)Nc1cc(F)c(NCc2ccc(F)cc2)cc1N [Compound 3A, ethyl(2-amino-5-fluoro-4-((4-fluorobenzyl)amino)phenyl)carbamate]						equivalent in activity to ezogabine	
CCOC(=O)Nc1cc(F)c(NCc2ccc(F)cc2)c(F)c1N [Compound 4A, ethyl(2-amino-3,5-difluoro-4-((4-fluorobenzyl)amino)phenyl)carbamate]						equivalent in activity to ezogabine	
CCOC(=O)Nc1ccc(NCc2ccc(F)cc2)c(F)c1N [Compound 1A, ethyl(2-amino-3-fluoro-4-((4-fluorobenzyl)amino)phenyl)carbamate]	31.4	62.9	125.5	119.9	61.9		Individual Data Points (% Activation) (0.01 μM, listed as Compound lA): 35.9% and 26.9%; Individual Data Points (% Activation) (0.1 μM, listed as Compound lA): 98.9% and 43.3% and 46.6%; Individual Data Points (% Activation) (1 μM, listed as Compound lA): 123.5% and 127.6%; Individual Data Points (% Activation) (10 μM, listed as Compound lA): 119.7% and 120.1%; Individual Data Points (% Activation) (100 μM, listed as Compound lA): 56.6% and 67.3%
CCOC(=O)Nc1c(N)cc(NCc2ccc(F)cc2)cc1F [Compound 2A, ethyl(2-amino-6-fluoro-4-((4-fluorobenzyl)amino)phenyl)carbamate]						equivalent in activity to ezogabine	
